Legend:
[1] = system: human conjunctival fibroblasts; experiment: cell viability assay (CellTiter 96 Aqueous one solution); format: cell-based; conditions: for cell viability: 24 hours
Experimental: Human conjunctival fibroblasts were plated at 6.25 × 10^3 cells/well in 96-well plates (Falcon, Fisher Scientific), and treated with 1, 3, 10, 30 or 100 μM of CCG-222740 or CCG-203971 or 0.1% DMSO control for 24 hours. 20 μl of CellTiter 96 Aqueous one solution (Promega) were then added to each well containing the samples in 100 μl of culture medium. The plate was incubated for 1 hour at 37 °C and the absorbance was measured at 490 nm on a SpectraMax Plus 384 spectrophotometer (Molecular Devices, California, USA). Each experiment was carried out in triplicates for each condition and the experiment was repeated three times.

[2] = system: SRF reporter gene; experiment: SRF reporter gene assay in transfected cells; format: cell-based; conditions: human and rabbit conjunctival fibroblasts (3DA.Luc), HEK293 (SRE.L luc), 24 hours
Experimental: Human or rabbit conjunctival fibroblasts were plated at 2 × 10^4 cells/well in 24-well plates (Falcon, Fisher Scientific) for transient transfection. Conjunctival fibroblasts in each well were co-transfected using 2.5 μl Lipofectamine LTX and 0.5 μl Plus reagent (Invitrogen) with 8 ng of SRF reporter plasmid 3DA.Luc, 20 ng of pTK-Renilla-Luc and 172 ng of pEF in OptiMEM (Gibco)[58]. After 2 hours of transfection, fibroblasts were allowed to recover in DMEM +10% FCS overnight.
HEK293T cells were plated at 2 × 10^4 cells/well in 96-well plates (Falcon, Fisher Scientific) and co-transfected using Lipofectamine 2000 (Invitrogen) with 4 ng of SRF reporter plasmid SRE.L. luciferase, and 2 ng of either Gα12Q231L or pcDNA3.1/Zeo(−) diluted in Opti-MEM (Gibco). After 5 hours of transfection, cells were allowed to recover in DMEM +10% FCS overnight.
The next day, the cells were serum starved in DMEM +0.3% FCS and 5, 25, 50, or 100 μM of CCG-222740 or CCG-203971 or 0.1% DMSO control for 24 hours. The cells were then lysed and luciferase levels were measured using a Luciferase Assay System (Promega), according to the manufacturer’s instructions. Each experiment was carried out in triplicates for each condition and the experiment was repeated three times.

[3] = system: ACTA2 and CTGF in human conjunctival fibroblasts; experiment: MRTF/SRF target gene expression by qRT-PCR (human); format: cell-based; conditions: 24 hours, 10% FCS
Experimental: (§1) Human or rabbit conjunctival fibroblasts were plated at 1 × 10^5 cells/well in 6-well plates (Falcon, Fisher Scientific). The next day, the fibroblasts were treated with 5, 10, 25, or 50 μM of CCG-222740 or CCG-203971 or 0.1% DMSO control in DMEM +10% FCS for 24 hours. The fibroblasts were then lysed for RNA extraction using the Sigma RNA isolation kit (Sigma-Aldrich), according to the manufacturer’s instructions. Reverse transcription was carried out using the Transcriptor First Strand cDNA Synthesis Kit (Roche), according to the manufacturer’s instructions. qRT-PCR reactions were performed using SYBR green reagents (Life Technologies) on an HT7900 Fast Real-Time PCR system (Applied Biosystems). The human exonic primer sequences were: ACTA2, 5′-[…]-3′, 3′-[…]-5′; CTGF, 5′-CAGAGTGGAGCGCCTGTT-3′, 3′-CTGCAGGAGGCGTTGTCA-5′; GAPDH, 5′-[…]-3′, 3′-[…]-5′. The rabbit exonic primer sequences were ACTA2, 5′- […]-3′, 3′- […]-5′; GAPDH, 5′-CGAGACACGATGGTGAAGG-3′, 3′-[…]-5′. All mRNA values were normalised relative to that of GAPDH. Each experiment was carried out in triplicates for each treatment group and the experiment was repeated three times.

[4] = system: ACTA2 in rabbit conjunctival fibroblasts; experiment: ACTA2 gene expression by qRT-PCR (rabbit); format: cell-based; conditions: 24 hours
Experimental: as §1

[5] = system: New Zealand white rabbits; experiment: local and systemic toxicity after glaucoma filtration surgery; format: in vivo; conditions: rabbit; for Ki67 positive cells in the conjunctival epithelium: day 30; for corneal or conjunctival toxicities, anterior chamber inflammation / local toxicity, conjunctival epithelium: local delivery; for systemic toxicity: local delivery to the conjunctiva
Experimental: The animals were evaluated twice weekly by a single-masked researcher. Bleb width and length were measured using calipers and intraocular pressures (IOP) were measured using a tonovet (Icare). The primary efficacy end-point was bleb survival as this is indicative of the long-term opening of the filtration pathway created during surgery. Bleb failure was defined as the appearance of a flat, scarred, and vascularised bleb associated with a deep anterior chamber. IOP survival, defined as when the intraocular pressure remains below the baseline IOP measurement, and bleb area were used as secondary end-points. Conjunctival vascularity was graded on a scale of 0 to 3 (0: avascular, 1: normal, 2: hyperaemic, 3: very hyperaemic).
For the Ki67 staining, the sections were dewaxed, rehydrated, and microwaved for 15 minutes in sodium citrate buffer (pH 6) for antigen retrieval. After incubating in 1.6% hydrogen peroxide followed by 10% normal horse serum, the sections were incubated in mouse anti-Ki67 (M7248, Dako) diluted 1 in 25 in 1% BSA/PBS for 1 hour at room temperature. The sections were then incubated in biotinylated horse anti-mouse IgG (Vector) and Avidin-Biotin complex (Vector), developed in DAB (Vector), and counterstained in haematoxylin.
(§2) All animals were carefully evaluated for any signs of ocular or systemic toxicity during the study. At day 30, 100 µl of aqueous, 1 ml of vitreous, and 1 ml of venous blood were sampled on the rabbit eyes receiving CCG-222740 or CCG-203971 or vehicle control. The venous blood samples were left to clot for 30 minutes at room temperature, spun at 4000 rpm for 15 minutes at 4 °C, and the serum was collected as the supernatant. Samples were extracted in acetonitrile and the levels of CCG-222740 and CCG-203971 were measured in the aqueous, vitreous, and serum using liquid chromatography/mass spectrometry (LC/MS) in the Metabolomics Core at Michigan State University (East Lansing, MI).

[6] = drug levels in aqueous, vitreous and serum by LC/MS; format: in vivo; conditions: rabbit, day 30, 48 hours after the last subconjunctival dose
Experimental: as §2

SMILES | cell viability ([1]; 10 μM) [%] | cell viability ([1]; 30 μM) [%] | cell viability ([1]; 100 μM) [%] | cytotoxicity, comparison ([1]; human conjunctival fibroblasts) | inhibition of baseline SRF reporter activity [2] [%] | expression of MRTF/SRF target genes ACTA2 and CTGF, comparison [3] | ACTA2 gene expression, comparison [4] | conjunctival vascularity [5] | Ki67 positive cells in the conjunctival epithelium [5] | corneal or conjunctival toxicities, anterior chamber inflammation [5] | local toxicity, conjunctival epithelium [5] | systemic toxicity [5] | drug level in aqueous [6] | drug level in serum [6] | drug level in vitreous [6]
O=C(Nc1ccc(Cl)cc1)C1CN(C(=O)c2cccc(-c3ccco3)c2)CC(F)(F)C1 (stereo not drawn) [CCG-222740] | 100 | 88 | 85 | less cytotoxic than CCG-203971 | ~100 | more potent inhibitor of expression | decreased ACTA2 gene expression to a greater extent than CCG-203971 | no abnormalities in conjunctival vascularity | normal Ki67 positive cells | no signs of corneal or conjunctival toxicities or anterior chamber inflammation | did not cause any detectable local toxicity | none of them showed any signs of systemic toxicity | below 20 nM | below 20 nM | below 20 nM
O=C(Nc1ccc(Cl)cc1)C1CCCN(C(=O)c2cccc(-c3ccco3)c2)C1 (stereo not drawn) [CCG-203971] | – | – | – | – | ~100 | – | – | no abnormalities in conjunctival vascularity | normal Ki67 positive cells | no signs of corneal or conjunctival toxicities or anterior chamber inflammation | did not cause any detectable local toxicity | none of them showed any signs of systemic toxicity | below 20 nM | below 20 nM | below 20 nM

From article PMC5428058, “Local delivery of novel MRTF/SRF inhibitors prevents scar tissue formation in a preclinical model of fibrosis” (Scientific Reports, 2017)
